Values joined by “and” are separate entries in the source; they are usually repeats but may differ in a detail not shown here. Equal entries are not always repeated.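 Cells were grown in 96-well plates and exposed to each compound for 48 hours at five concentrations; endpoints were interpolated linearly between bracketing concentrations, or set to the highest concentration if not reached. GI50 = concentration required for 50% inhibition of growth.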 Active and inactive are the calls of the source. Rule as the data show it: active = GI50 up to about 1.1 µM and inactive = higher.
What was measured:
Assay in all cases: DTP human tumour cell line panel, 48 h
NCI-H460 = test system: NCI-H460
EKVX = test system: EKVX
HL-60 = test system: HL-60
SF-268 = test system: SF-268
CCRF-CEM = test system: CCRF-CEM
UACC-257 = test system: UACC-257
ACHN = test system: ACHN
SNB-75 = test system: SNB-75
K562 = test system: K562
HOP-18 = test system: HOP-18
SK-MEL-5 = test system: SK-MEL-5
SN12C = test system: SN12C
HOP-92 = test system: HOP-92
SK-MEL-2 = test system: SK-MEL-2
OVCAR-5 = test system: OVCAR-5
COLO 205 = test system: COLO 205
XF498 = test system: XF498
786-0 = test system: 786-0
NCI-H522 = test system: NCI-H522
SK-MEL-28 = test system: SK-MEL-28
M19-MEL = test system: M19-MEL
UO-31 = test system: UO-31
SK-OV-3 = test system: SK-OV-3
MOLT-4 = test system: MOLT-4
DMS-114 = test system: DMS-114
HCT-15 = test system: HCT-15
UACC-62 = test system: UACC-62
CAKI-1 = test system: CAKI-1
HT-29 = test system: HT-29
SW-620 = test system: SW-620
LOX IMVI = test system: LOX IMVI
OVCAR-8 = test system: OVCAR-8
KM12 = test system: KM12
HCC 2998 = test system: HCC 2998
DLD-1 = test system: DLD-1
A498 = test system: A498
OVCAR-4 = test system: OVCAR-4
LXFL 529 = test system: LXFL 529
TK-10 = test system: TK-10
DMS-273 = test system: DMS-273
Malme-3M = test system: Malme-3M
OVCAR-3 = test system: OVCAR-3
M14 = test system: M14
RPMI-8226 = test system: RPMI-8226
U-251 = test system: U-251
SF-539 = test system: SF-539
NCI-H23 = test system: NCI-H23
SNB-19 = test system: SNB-19
IGROV-1 = test system: IGROV-1
RXF 393 = test system: RXF 393
SR = test system: SR
A549 = test system: A549
KM-20L2 = test system: KM-20L2
NCI-H226 = test system: NCI-H226
HCT-116 = test system: HCT-116
SF-295 = test system: SF-295

With `NCCCNCCSSC/C=C\CSSCCNCCCN` the GI50 (NCI-H460) was > 100 µM (inactive), the GI50 (EKVX) was > 100 µM (inactive) and the GI50 (HL-60) was 16.6 µM (inactive) and 19.2 µM (inactive). For the same compound, the GI50 (SF-268) was > 100 µM (inactive) and 57.8 µM (inactive), the GI50 (CCRF-CEM) was 3.75 µM (inactive) and 4.3 µM (inactive) and the GI50 (UACC-257) was 30.9 µM (inactive) and 17.1 µM (inactive). The GI50 (ACHN) was > 100 µM (inactive), the GI50 (SNB-75) was 39.5 µM (inactive) and 37.3 µM (inactive) and the GI50 (K562) was 19.2 µM (inactive) and 18.4 µM (inactive). For the same compound, the GI50 (HOP-18) was > 100 µM (inactive), the GI50 (SK-MEL-5) was 41.1 µM (inactive) and 62.1 µM (inactive) and the GI50 (SN12C) was 75.7 µM (inactive) and 44.4 µM (inactive). The GI50 (HOP-92) was 18.9 µM (inactive) and 23 µM (inactive), the GI50 (SK-MEL-2) was 50.1 µM (inactive) and the GI50 (OVCAR-5) was > 100 µM (inactive). The GI50 (COLO 205) was 29.5 µM (inactive) and 45.6 µM (inactive), the GI50 (XF498) was 52.6 µM (inactive) and 93.5 µM (inactive) and the GI50 (786-0) was > 100 µM (inactive). The GI50 (NCI-H522) was 10.3 µM (inactive) and 13.2 µM (inactive), the GI50 (SK-MEL-28) was > 100 µM (inactive) and the GI50 (M19-MEL) was 64.6 µM (inactive). The GI50 (UO-31) was 65 µM (inactive) and 63.4 µM (inactive), the GI50 (SK-OV-3) was > 100 µM (inactive) and the GI50 (MOLT-4) was 20.4 µM (inactive) and 12.3 µM (inactive). The GI50 (DMS-114) was 67 µM (inactive) and 44.1 µM (inactive), the GI50 (HCT-15) was > 100 µM and 63.7 µM and the GI50 (UACC-62) was 36.3 µM (inactive) and 52.8 µM (inactive). The GI50 (CAKI-1) was 36.1 µM (inactive) and 38.5 µM (inactive), the GI50 (HT-29) was 14.2 µM (inactive) and 15.3 µM (inactive) and the GI50 (SW-620) was 44.4 µM (inactive) and 31.1 µM (inactive). The GI50 (LOX IMVI) was 45.2 µM (inactive) and 43.3 µM (inactive), the GI50 (OVCAR-8) was > 100 µM (inactive) and the GI50 (KM12) was 17.7 µM (inactive) and 18.9 µM (inactive). The GI50 (HCC 2998) was 90.6 µM (inactive), the GI50 (DLD-1) was 37.5 µM (inactive) and 60.1 µM (inactive) and the GI50 (A498) was > 100 µM (inactive). For the same compound, the GI50 (OVCAR-4) was 51.8 µM (inactive) and 58.2 µM (inactive), the GI50 (LXFL 529) was 34.9 µM (inactive) and 24.9 µM (inactive) and the GI50 (TK-10) was > 100 µM (inactive) and 60.3 µM (inactive). For the same compound, the GI50 (DMS-273) was 43.1 µM (inactive) and 44.8 µM (inactive), the GI50 (Malme-3M) was 78 µM (inactive) and the GI50 (OVCAR-3) was 40.5 µM (inactive) and 42 µM (inactive). For the same compound, the GI50 (M14) was 34 µM (inactive) and 49 µM (inactive), the GI50 (RPMI-8226) was 26.9 µM (inactive) and 28.6 µM (inactive) and the GI50 (U-251) was > 100 µM (inactive) and 53.8 µM (inactive). For the same compound, the GI50 (SF-539) was 72.4 µM (inactive) and 89.3 µM (inactive), the GI50 (NCI-H23) was > 100 µM (inactive) and the GI50 (SNB-19) was > 100 µM (inactive). The GI50 (IGROV-1) was > 100 µM (inactive).

With `COc1ccc2[nH]c3c(C)cc([N+](=O)[O-])c(C)c3c2c1` the GI50 (NCI-H460) was 15.5 µM (inactive), the GI50 (EKVX) was 31 µM (inactive) and the GI50 (HL-60) was 16.6 µM (inactive). The GI50 (SF-268) was 37.3 µM (inactive), the GI50 (CCRF-CEM) was 17.9 µM (inactive) and the GI50 (UACC-257) was 31.2 µM (inactive). For the same compound, the GI50 (ACHN) was 22 µM (inactive), the GI50 (RXF 393) was 19 µM (inactive) and the GI50 (SR) was 17.7 µM (inactive). The GI50 (SNB-75) was 20.4 µM (inactive), the GI50 (K562) was 18.4 µM (inactive) and the GI50 (A549) was 25 µM (inactive). The GI50 (HOP-18) was 26.1 µM (inactive), the GI50 (SK-MEL-5) was 25.6 µM (inactive) and the GI50 (SN12C) was 31.3 µM (inactive). For the same compound, the GI50 (HOP-92) was 28.4 µM (inactive), the GI50 (SK-MEL-2) was 20.6 µM (inactive) and the GI50 (KM-20L2) was 47.5 µM (inactive). The GI50 (NCI-H226) was 43.7 µM (inactive), the GI50 (COLO 205) was 26.3 µM (inactive) and the GI50 (XF498) was 34.2 µM (inactive). The GI50 (786-0) was 21.8 µM (inactive), the GI50 (NCI-H522) was 17.1 µM (inactive) and the GI50 (SK-MEL-28) was 24.7 µM (inactive). For the same compound, the GI50 (M19-MEL) was 21.9 µM (inactive), the GI50 (UO-31) was 21.6 µM (inactive) and the GI50 (SK-OV-3) was 28.2 µM (inactive). For the same compound, the GI50 (MOLT-4) was 20.5 µM (inactive), the GI50 (DMS-114) was 23.3 µM (inactive) and the GI50 (HCT-15) was 26.6 µM. The GI50 (CAKI-1) was 19.4 µM (inactive), the GI50 (HT-29) was 28.5 µM (inactive) and the GI50 (SW-620) was 21.7 µM (inactive). The GI50 (OVCAR-8) was 23 µM (inactive), the GI50 (KM12) was 19.7 µM (inactive) and the GI50 (HCC 2998) was 25.4 µM (inactive). For the same compound, the GI50 (DLD-1) was 26.6 µM (inactive), the GI50 (A498) was 21.6 µM (inactive) and the GI50 (OVCAR-4) was 33 µM (inactive). The GI50 (LXFL 529) was 25.5 µM (inactive), the GI50 (TK-10) was 27.1 µM (inactive) and the GI50 (DMS-273) was 13.6 µM (inactive). For the same compound, the GI50 (HCT-116) was 17.9 µM (inactive), the GI50 (SF-295) was 41.4 µM (inactive) and the GI50 (Malme-3M) was 28.6 µM (inactive). For the same compound, the GI50 (OVCAR-3) was 37.8 µM (inactive), the GI50 (M14) was 21.1 µM (inactive) and the GI50 (RPMI-8226) was 17.7 µM (inactive). The GI50 (U-251) was 22.9 µM (inactive), the GI50 (SF-539) was 23.7 µM (inactive) and the GI50 (NCI-H23) was 22.6 µM (inactive). For the same compound, the GI50 (SNB-19) was 37.8 µM (inactive) and the GI50 (IGROV-1) was 27.4 µM (inactive).

— ChEMBL document CHEMBL1201862, “PubChem BioAssay data set” (2004)
